Measured values reported in paper PMC9798496 (ACS Omega, 2022).
“Also recorded” adds a separate entry of the source.

Tested on: healthy mice
Assay: MicroPET/CT biodistribution in healthy mice
Format: in vivo
Conditions: PET/CT

OC[C@H]1OC(O)[C@H](F)[C@@H](O)[C@@H]1O (some centres unmarked) [[^18F]FDG, fluorodeoxyglucose]
site of uptake, metabolism and elimination: typical metabolism in the heart, brain, and brown fat; also recorded: uptake was observed in the brain and heart
uptake in the center of the brain: about 1.6 SUV
uptake in the center of the heart: about 2.7 SUV
brain uptake of [18F]FDG relative to [18F]Glc1 (center of the brain): about 20 times
heart uptake of [18F]FDG relative to [18F]Glc1 (center of the heart): about 14 times
